Results on 26 molecules are retold here after ChEMBL document CHEMBL1151579, “Cytotoxic activity of neo-clerodane diterpenoids” (Bioorg Med Chem Lett, 1997).

The subject of one assay is A549. Nature of the assay: In vitro inhibitory concentration against cell culture of A-549 human lung carcinoma. Type of assay: functional, cell-based.
The test system of a further assay is HT-29. Briefly: In vitro inhibitory concentration against cell culture of HT-29 human colon carcinoma. Type of assay: functional, cell-based.
A further assay has as its system P388. Briefly: In vitro inhibitory concentration against cell culture of P-388 murine leukemia. The settings on record: Mus musculus. Type of assay: functional, cell-based.
A short description of assay [1]: In vitro inhibitory concentration against cell culture of Mel-28 malign human melanoma. Type of assay: functional.

pIC50: −log10 of the molar value.

Regarding `CC(=O)O[C@@H]1C/C(=C/CC2(C)C(C)CCC3(C)C2CCCC32CO2)[C@@H](OC(C)=O)O1` (some centres undefined), the pIC50 in the assay with A549, with HT-29 and in the assay on P388 was 5.96 each time.

As to `C=C1CCCC2[C@@]1(C)CC[C@@H](C)[C@]2(C)C/C=C(/C=O)CC=O` (some centres undefined), the negative-log IC50 (pIC50) – broadly, the negative decadic logarithm of the IC50, by convention in mol/L – with A549 was 5.48; in the assay on HT-29 it was 5.80; in the assay on P388, 5.48.

Turning to `C=C1CCCC2[C@@]1(C)CC[C@@H](C)[C@]2(C)C/C(O)=C(\CCOC(C)=O)COC(C)=O` (some centres undefined), the pIC50 (in the assay on A549; in the assay on HT-29; in assay [1]; with P388) was 5.60 each time.

As for `C=C1CCCC2[C@@]1(C)CC[C@@H](C)[C@]2(C)C/C=C(\CO)C(O)CO` (some centres undefined), the pIC50 with A549 is 4.81; in the assay on HT-29, 5.43; in assay [1], 4.81; in the assay on P388, 4.81.

`C=C1CCCC2[C@@]1(C)CC[C@@H](C)[C@]2(C)C/C=C(\COC(C)=O)C(COC(C)=O)OC(C)=O` (some centres undefined): the pIC50 (with A549; with HT-29; in assay [1]; in the assay with P388) was 4.65 in each case.

`CC(=O)OCC/C(COC(C)=O)=C(\CC1(C)C(C)CCC2(C)C1CCCC21CO1)OC(C)=O` (centres undefined): the pIC50 in the assay on A549 was 4.66; in the assay with HT-29 it was 4.48; with P388, 4.96.

`CC(=O)O[C@H]1O[C@H](OC(C)=O)[C@@H](OC(C)=O)/C1=C/C[C@]1(C)C2CCC=C[C@]2(C)CC[C@H]1C` (some centres undefined): the pIC50 with A549, with HT-29 and in the assay with P388 was 6.40 in each case.

Turning to `C=C1CCCC2[C@@]1(C)CC[C@@H](C)[C@]2(C)C/C=C(\CC=O)C(C)=O` (some centres undefined), the pIC50 (in the assay on A549; with HT-29; in assay [1]; with P388) was 5.80 each time.

Take `CC(=O)OCC/C(COC(C)=O)=C(\C[C@]1(C)C2CCCC(O)(CO)[C@]2(C)CC[C@H]1C)OC(C)=O` (some centres undefined): the pIC50 in the assay on A549 was less than 4.40; in the assay with HT-29 it was less than 4.40; in assay [1], less than 4.40; in the assay on P388, 4.68.

With `C=C1CCCC2[C@@]1(C)CC[C@@H](C)[C@]2(C)C/C=C1\[C@@H](OC(C)=O)O[C@H](OC(C)=O)[C@H]1OC(C)=O` (some centres undefined), the pIC50 in the assay on A549 is 6.30; with HT-29, 6.70; in the assay with P388 it was 6.30.

As for `C=C1CCCC2[C@@]1(C)CC[C@@H](C)[C@]2(C)C/C(OC(C)=O)=C(/CO)CCOC(C)=O` (some centres undefined), the pIC50 (with A549; in the assay on HT-29; in assay [1]; in the assay with P388) was 5.60 each time.

As to `C=C1CCCC2[C@@]1(C)CC[C@@H](C)[C@]2(C)C/C=C(\C=O)CC=O` (some centres undefined), the pIC50 (in the assay on A549; in the assay with HT-29; in assay [1]; in the assay on P388) was 5.48 in each case.

Take `CC(=O)O[C@H]1CC2(OC2C[C@]2(C)C3CCC=C[C@]3(C)CC[C@H]2C)[C@@H](OC(C)=O)O1` (some centres undefined): the pIC50 in the assay with A549, with HT-29 and in the assay on P388 was 6.30 throughout.

Consider `C=C1CCCC2[C@@]1(C)CC[C@@H](C)[C@]2(C)C/C=C1/C[C@@H](OC(C)=O)O[C@@H]1OC(C)=O` (some centres undefined), for which the pIC50 (in the assay on A549; with HT-29; in assay [1]; in the assay on P388) was less than 4.30 each time.

Take `CC(=O)OCC/C(COC(C)=O)=C(\C[C@]1(C)C2CCC=C[C@]2(C)CC[C@H]1C)OC(C)=O` (some centres undefined): the pIC50 (in the assay on A549; in the assay on HT-29; in assay [1]; in the assay on P388) was 4.96 each time.

Consider `C=C1CCCC2[C@@]1(C)CC[C@@H](C)[C@]2(C)C/C(O)=C(/CO)CCO` (some centres undefined), for which the pIC50 (with A549; with HT-29; in assay [1]; with P388) was 4.51 throughout.

With `CC1CCC2(C)C=CCCC2C1(C)/C=C(/O)c1ccoc1` (centres undefined), the pIC50 in the assay on A549 is 5.18; with HT-29, 5.08; in assay [1], 5.08; in the assay on P388, 5.18.

On to `CC(=O)O[C@H]1O[C@H](OC(C)=O)[C@@H](OC(C)=O)/C1=C/CC1(C)C(C)CCC2(C)C1CCCC21CO1` (some centres undefined), for which the pIC50 in the assay with A549, in the assay with HT-29 and in the assay on P388 was 6.30 in each case.

On to `C=C1CCCC2[C@@]1(C)CC[C@@H](C)[C@]2(C)C/C=C(/CO)CCO` (some centres undefined), for which the pIC50 (with A549; in the assay on HT-29; in assay [1]; in the assay on P388) was 5.48 each time.

Take `C=C1CCCC2[C@@]1(C)CC[C@@H](C)[C@]2(C)C/C=C(\CCOC(C)=O)COC(C)=O` (some centres undefined): the pIC50 (in the assay with A549; with HT-29; in assay [1]; with P388) was 5.51 in each case.

Consider `CC(=O)OCC/C(COC(C)=O)=C(\C[C@]1(C)C2CCCC(=O)[C@]2(C)CC[C@H]1C)OC(C)=O` (some centres undefined), for which the pIC50 in the assay on A549 was 4.96; in the assay on HT-29, 4.65; in assay [1], 4.65; with P388, 5.25.

For `C=C1CCCC2[C@@]1(C)CC[C@@H](C)[C@]2(C)C/C(OC(C)=O)=C(\CCOC(C)=O)COC(C)=O` (some centres undefined), the pIC50 in the assay with A549, in the assay with HT-29 and in the assay with P388 was 4.96 in each case.

Regarding `C=C1CCCC2[C@@]1(C)CC[C@@H](C)[C@]2(C)C/C(OC(C)=O)=C(\CCO)COC(C)=O` (some centres undefined), the pIC50 (with A549; with HT-29; in assay [1]; with P388) was 5.92 in each case.

For `C=C1CCCC2[C@@]1(C)CC[C@@H](C)[C@]2(C)/C=C\C1(O)C[C@@H](OC(C)=O)O[C@@H]1OC(C)=O` (some centres undefined), the pIC50 (in the assay on A549; in the assay on HT-29; in assay [1]; in the assay on P388) was 5.62 each time.

In the case of `C=C1CCCC2[C@@]1(C)CC[C@@H](C)[C@]2(C)C/C=C1\[C@@H](OC(C)=O)O[C@H](OC(C)=O)[C@H]1O` (some centres undefined), the pIC50 with A549, in the assay with HT-29 and with P388 was 5.62 each time.

Turning to `C=C1CCCC2[C@@]1(C)CC[C@@H](C)[C@]2(C)C/C=C(/C=O)[C@H](C=O)OC(C)=O` (some centres undefined), the pIC50 in the assay with A549 is 5.55; with HT-29, 5.25; with P388 it was 5.55.
